Target: T1, human CB1 receptors (Homo sapiens, UniProt P21554)
T1 construct: expressed in transfected cells; host or cells: stably transfected cells (cell line for CB1 not explicitly stated)
Assay: Radioligand competition binding of [^3H]CP55940, human CB1
Settings: competition with [^3H]CP55940; cells recombinantly expressing the receptor
Procedure: Stably transfected cells or spleen tissue were homogenized in 15 mmol L-1 Hepes, 0.3 mmol L-1 EDTA, 1 mmol L-1 EGTA, 2 mmol L-1 MgCl2, complete EDTA-free protease inhibitor (Roche Applied Science, Rotkreuz, Switzerland), pH 7.4 using a glass potter and centrifugation at 47,800 g at 4° C. for 30 min. The pellet was then rehomogenized twice in the same buffer and centrifuged (47,800 g, 4° C., 30 min). The final pellet was then resuspended in 75 mmol L-1 Tris, 0.3 mmol L-1 EDTA, 1 mmol L-1 EGTA, 12.5 mmol L-1 MgCl2, 250 mmol L-1 sucrose, pH 7.4 at a protein concentration of 1 to 3 mg mL-1, aliquoted, frozen on dry ice and stored at −80° C.
For competition binding, membrane preparations were incubated either with 0.3 nM of [^3H]-CP55940 in the presence or absence of increasing concentrations of unlabeled (R^1═R^2═CH2CH3, R^3═CH2CH2CH2F) compound of formula (I) or with 1.5 nM compound of formula (I) ((R^1═R^2═CHTCH2T, R^3═CH2CH2CH2F)) and increasing amounts of membranes (2.5-80 μg) in the presence or absence of CP55940 (10 μM) for 60 min at 30° C. in a final volume of 0.2 mL of 50 mmol L-1 Tris-HCl, 5 mmol L-1 MgCl2, 2.5 mmol L-1 EGTA, 0.1% fatty acid-free BSA and 1% DMSO, pH 7.4, buffer, gently shaking. […] IC50 values and Hill slopes were determined by a four parameter logistic model using ActivityBase

T1 sequence (P21554 whole entry): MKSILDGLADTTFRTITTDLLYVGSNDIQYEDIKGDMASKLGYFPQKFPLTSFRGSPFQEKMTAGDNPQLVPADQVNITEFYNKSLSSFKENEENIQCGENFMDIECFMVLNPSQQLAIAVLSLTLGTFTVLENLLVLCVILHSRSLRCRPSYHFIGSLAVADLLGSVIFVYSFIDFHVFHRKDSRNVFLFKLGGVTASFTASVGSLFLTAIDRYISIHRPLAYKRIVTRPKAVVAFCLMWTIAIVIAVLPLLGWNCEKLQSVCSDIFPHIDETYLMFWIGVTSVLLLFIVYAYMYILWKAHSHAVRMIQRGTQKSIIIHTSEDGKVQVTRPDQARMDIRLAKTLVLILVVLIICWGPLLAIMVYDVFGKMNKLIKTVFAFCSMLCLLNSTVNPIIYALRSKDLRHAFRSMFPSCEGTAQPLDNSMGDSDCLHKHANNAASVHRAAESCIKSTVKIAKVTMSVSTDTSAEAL

Ki: > 10 µM
SMILES: CCC(CC)(NC(=O)c1ccc(N2CC(OC)C2)c(OC[C@H]2C[C@@H]2CO)n1)C(=O)OCCCF [unlabeled compound of formula (I)]
